Reference: ChEMBL document CHEMBL1201862, “PubChem BioAssay data set” (2004)
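These data come from cells grown in 96-well plates and exposed to compound for 48 hours at five concentrations. GI50: concentration for 50% inhibition of growth.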 The source made the active and inactive calls. Rule as the data show it: active = GI50 up to about 1.1 µM and inactive = higher.

Experiments:
Assay in all cases: NCI tumour cell line growth inhibition, 48 h
UACC-257 = system: UACC-257
RXF 393 = system: RXF 393
U-251 = system: U-251
HT-29 = system: HT-29
MDA-MB-435 = system: MDA-MB-435
786-0 = system: 786-0
OVCAR-4 = system: OVCAR-4
DU-145 = system: DU-145
HCT-116 = system: HCT-116
SK-MEL-2 = system: SK-MEL-2
SNB-75 = system: SNB-75
COLO 205 = system: COLO 205
CAKI-1 = system: CAKI-1
Malme-3M = system: Malme-3M
NCI/ADR-RES = system: NCI/ADR-RES
HOP-92 = system: HOP-92
Hs-578T = system: Hs-578T
NCI-H23 = system: NCI-H23

Measured: GI50

CCOC(=O)c1nc2c(Cl)c3ncccc3cc2[nH]c1=O
inactive: UACC-257 46.7 µM | RXF 393 55 µM | U-251 23 µM | HT-29 38 µM | MDA-MB-435 32.1 µM | 786-0 35.6 µM | OVCAR-4 49.1 µM | DU-145 > 100 µM | HCT-116 31.8 µM | SK-MEL-2 22.4 µM | SNB-75 17.2 µM | COLO 205 > 100 µM | CAKI-1 66.5 µM | Malme-3M > 100 µM | NCI/ADR-RES 30.1 µM | HOP-92 40.6 µM | Hs-578T 31.7 µM | NCI-H23 29.3 µM

COC(=O)c1ccc(COC(=O)N2C=CCC2C(=O)O)cc1 (centres undefined)
inactive: UACC-257 > 100 µM | RXF 393 > 100 µM | U-251 > 100 µM | HT-29 > 100 µM | MDA-MB-435 > 100 µM | 786-0 > 100 µM | DU-145 > 100 µM | SK-MEL-2 > 100 µM | SNB-75 > 100 µM | COLO 205 > 100 µM | CAKI-1 > 100 µM | Malme-3M > 100 µM | NCI/ADR-RES > 100 µM | HOP-92 63 µM | Hs-578T > 100 µM | NCI-H23 > 100 µM

CSC12c3cc(C)n(-c4ccc(I)cc4)c3CC(C)(C)CN1C(=O)C2Oc1ccccc1 (centres undefined)
inactive: UACC-257 > 66.5 µM | RXF 393 > 100 µM | U-251 > 100 µM | HT-29 > 100 µM | MDA-MB-435 > 100 µM | 786-0 > 100 µM | OVCAR-4 > 100 µM | DU-145 > 100 µM | HCT-116 48.6 µM | SK-MEL-2 > 100 µM | SNB-75 > 100 µM | COLO 205 > 100 µM | CAKI-1 > 100 µM | Malme-3M > 100 µM | NCI/ADR-RES > 100 µM | HOP-92 > 100 µM | Hs-578T > 100 µM | NCI-H23 > 100 µM

Cc1ccc(C2=C(Cl)C(=O)C(c3ccc(C)cc3)=C(Cl)C2=O)cc1
inactive: UACC-257 > 100 µM | RXF 393 > 100 µM | U-251 > 100 µM | HT-29 > 100 µM | MDA-MB-435 > 100 µM | 786-0 > 100 µM | OVCAR-4 > 100 µM | DU-145 > 100 µM | HCT-116 > 100 µM | SNB-75 > 100 µM | COLO 205 > 100 µM | CAKI-1 > 100 µM | Malme-3M > 100 µM | NCI/ADR-RES > 100 µM | HOP-92 > 100 µM | Hs-578T > 100 µM | NCI-H23 > 100 µM

N#CCCN(CCN(CCN(C(=O)Nc1ccccc1)c1ccccc1)C(=O)Nc1ccccc1)C(=O)Nc1ccccc1
inactive: UACC-257 > 100 µM | RXF 393 > 100 µM | U-251 5.7 µM | MDA-MB-435 20.7 µM | 786-0 > 100 µM | OVCAR-4 > 100 µM | DU-145 > 100 µM | HCT-116 > 100 µM | SK-MEL-2 > 100 µM | SNB-75 67.6 µM | COLO 205 > 100 µM | CAKI-1 > 100 µM | NCI/ADR-RES > 100 µM | HOP-92 15.2 µM | Hs-578T 26 µM | NCI-H23 > 100 µM

CC(C)(C)OC(=O)N1CCc2[nH][nH]c(=O)c2C1
inactive: UACC-257 > 100 µM | RXF 393 > 100 µM | U-251 > 100 µM | HT-29 > 100 µM | MDA-MB-435 > 100 µM | 786-0 > 100 µM | OVCAR-4 > 100 µM | DU-145 > 100 µM | HCT-116 > 100 µM | COLO 205 > 100 µM | CAKI-1 > 100 µM | Malme-3M > 100 µM | NCI/ADR-RES > 100 µM | HOP-92 > 100 µM | Hs-578T > 100 µM | NCI-H23 > 100 µM

O=C1CC(NC(=O)C(F)(F)F)c2c1csc2Br (centres undefined)
inactive: UACC-257 > 100 µM | RXF 393 2.87 µM | U-251 > 100 µM | HT-29 > 100 µM | MDA-MB-435 56.5 µM | 786-0 26.5 µM | OVCAR-4 58.5 µM | DU-145 2.11 µM | HCT-116 32.8 µM | SK-MEL-2 > 100 µM | COLO 205 > 100 µM | Malme-3M 18.8 µM | NCI/ADR-RES > 100 µM | HOP-92 35 µM | Hs-578T > 100 µM | NCI-H23 > 100 µM

O=C1/C(=C/c2cccnc2)SC(=S)N1Cc1ccco1
inactive: UACC-257 4.92 µM | RXF 393 3.44 µM | U-251 4.37 µM | HT-29 4.01 µM | MDA-MB-435 2.15 µM | 786-0 3.29 µM | OVCAR-4 8.81 µM | DU-145 2.19 µM | HCT-116 3.06 µM | SK-MEL-2 8.87 µM | COLO 205 6.15 µM | CAKI-1 9.59 µM | Malme-3M 6.73 µM | NCI/ADR-RES 20.1 µM | HOP-92 5.32 µM | Hs-578T 8.39 µM | NCI-H23 4.72 µM

COC(=O)c1cccc(C)c1C1CN=NC12Cc1c(ccc(C)c1C)C2=O (centres undefined)
inactive: UACC-257 > 100 µM | RXF 393 19.2 µM | U-251 56 µM | HT-29 25.8 µM | MDA-MB-435 35.2 µM | 786-0 46.2 µM | OVCAR-4 56.9 µM | DU-145 64.1 µM | HCT-116 22.5 µM | SNB-75 51.5 µM | CAKI-1 91.2 µM | Malme-3M 22.9 µM | NCI/ADR-RES 33.1 µM | HOP-92 38.4 µM | Hs-578T 27.4 µM | NCI-H23 64.1 µM

Cc1cc2c(cc1Cl)SC(N/N=C(\N)c1ccc(Cl)cc1)=NS2(=O)=O
inactive: UACC-257 62.7 µM | RXF 393 90.2 µM | U-251 44.7 µM | HT-29 52.8 µM | MDA-MB-435 61.8 µM | 786-0 90.8 µM | OVCAR-4 75.2 µM | DU-145 > 100 µM | HCT-116 46.2 µM | SNB-75 74.5 µM | COLO 205 42.3 µM | CAKI-1 > 100 µM | Malme-3M 38.1 µM | NCI/ADR-RES > 100 µM | HOP-92 10.4 µM | Hs-578T 48.5 µM | NCI-H23 30.7 µM

Cc1cs/c(=N\C(P(=O)(O)O)P(=O)(O)O)n1C
inactive: UACC-257 > 100 µM | RXF 393 > 100 µM | U-251 > 100 µM | HT-29 > 100 µM | MDA-MB-435 > 100 µM | 786-0 90.8 µM | DU-145 > 100 µM | HCT-116 > 100 µM | SNB-75 > 100 µM | COLO 205 > 100 µM | CAKI-1 > 100 µM | Malme-3M > 100 µM | NCI/ADR-RES > 100 µM | HOP-92 42.9 µM | Hs-578T 10.1 µM | NCI-H23 > 100 µM

[N-]=[N+]=Nc1cc(=O)[nH]nc1-c1ccccc1
inactive: UACC-257 > 100 µM | RXF 393 > 100 µM | U-251 > 100 µM | HT-29 > 100 µM | MDA-MB-435 > 100 µM | 786-0 > 100 µM | OVCAR-4 > 100 µM | DU-145 > 100 µM | HCT-116 > 100 µM | SNB-75 61.4 µM | COLO 205 > 100 µM | Malme-3M > 100 µM | NCI/ADR-RES > 100 µM | HOP-92 > 100 µM | Hs-578T > 100 µM | NCI-H23 > 100 µM
